The source of these data is US9458141B2, “Low molecular weight thyroid stimulating hormone receptor (TSHR) agonists” (The United States of America, as represented by the …, priority 2008, dated 2016).

Usually EC50 stands for the concentration needed to bring the measured effect to its halfway point. Low readings indicate higher potency in that assay, high ones lower potency in that assay.

In this assay the target is T1, human TSHR (Homo sapiens, UniProt P16473).
T1 construct: expressed in transfected cells
T1 sequence (P16473 21-764): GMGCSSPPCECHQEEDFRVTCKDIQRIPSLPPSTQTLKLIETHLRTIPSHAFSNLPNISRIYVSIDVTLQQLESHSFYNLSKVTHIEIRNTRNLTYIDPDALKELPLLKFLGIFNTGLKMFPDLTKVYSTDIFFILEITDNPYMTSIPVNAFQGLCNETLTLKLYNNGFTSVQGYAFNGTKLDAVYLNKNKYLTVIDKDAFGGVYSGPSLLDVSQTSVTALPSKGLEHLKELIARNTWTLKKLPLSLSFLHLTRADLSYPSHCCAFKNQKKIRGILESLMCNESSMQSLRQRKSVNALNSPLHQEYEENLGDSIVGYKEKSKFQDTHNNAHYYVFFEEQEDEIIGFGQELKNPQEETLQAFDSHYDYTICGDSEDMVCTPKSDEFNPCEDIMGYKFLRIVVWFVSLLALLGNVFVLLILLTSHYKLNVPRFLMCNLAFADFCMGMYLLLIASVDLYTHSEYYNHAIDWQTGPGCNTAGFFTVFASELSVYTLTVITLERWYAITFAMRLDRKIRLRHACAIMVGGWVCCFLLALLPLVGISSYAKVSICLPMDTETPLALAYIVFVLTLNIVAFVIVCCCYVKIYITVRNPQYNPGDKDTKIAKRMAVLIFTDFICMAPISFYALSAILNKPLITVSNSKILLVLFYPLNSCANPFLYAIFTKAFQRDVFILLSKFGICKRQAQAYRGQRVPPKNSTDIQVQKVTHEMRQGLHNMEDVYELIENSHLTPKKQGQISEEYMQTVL
The experiment in a line: Confirmatory cAMP assay, HEK EM 293 cells stably expressing TSHR. The assay is classed as cell-based. Conditions: 1 h incubation, 1 mM IBMX. The text has this:
cDNA for human TSHR was amplified by PCR from hTSHR-pSVL (1) and inserted into the pcDNA3.1(−)/hygromycin vector using restriction sites XhoI and BamHI. cDNA for human LHCGR was amplified by PCR from hLHR-pGS5 (2) and was inserted into the pcDNA3.1(+)/hygromycin vector using restriction sites BamHI and XhoI. The FSHR cDNA in pcDNA3.1 was obtained from the Missouri S&T cDNA Resource Center (www.cDNA.org) and was subcloned into the pcDNA3.1(−)/hygromycin vector. Constructs were confirmed by sequencing (MWG Biotech). HEK-EM 293 cells were transfected with the cDNA of TSHR, LHCGR or FSHR using FuGENE 6 Transfection reagent (Roche Diagnostics) according to the manufacturer's protocol. Two days after transfection cells were passaged and grown in Dulbecco's modified Eagle's Medium (DMEM) supplemented with 10% fetal bovine serum, 100 units/ml penicillin and 10 μg/ml streptomycin (Life Technologies Inc.) and with hygromycin (250 μg/ml) as a selection marker. After 7 to 10 days hygromycin-resistant clones were selected, and after a few days of further growth submitted for a cAMP assay to identify clones that stably express the appropriate receptor. Cell Culture. Cells stably expressing TSHR, LHCGR or FSHR and parental HEK 293 cells were maintained in DMEM medium containing 10% FBS, 100 units/ml Penicillin, 100 μg/ml Streptomycin, at 37° C. in 5% CO2. For the cells lines stably expressing TSHR, LHCGR or FSHR, additional 250 μg/ml Hygromycin was added during the cell culture. The cells were seeded at a density of 3 to 4 million cells in a T175 flask containing 35 ml of media and were allowed to grow for 3 days to reach 80-90% confluence. A flask of HEK 293 cells at this density generally yielded 30 million cells total. Homogeneous Time Resolved Fluorescence (HTRF) cAMP Assay. Compounds were assayed using a HTRF cAMP detection kit (Cisbio, Bedford, Mass.) on both TSHR cell line and parental cell line. Briefly, 750 cells were plated in 2.5 μl/well of complete media (DMEM containing 10% FCS) in 1536 well solid bottom white plates and 20 nl/well compound in DMSO solution or controls was added. Following 30 minute incubation at room temperature, 2.5 μl/well of labeled d2 cAMP and 2.5 μl/well of anti-cAMP antibody (both diluted 1:20 in lysis buffer) were added to each well using a flying reagent dispenser (Aurora Discovery, San Diego). Plates were measured using the Envision plate reader (PerkinElmer, Boston, Mass.) with excitation at 330 nm and emissions of 615 nm and 660 nm. Compound Preparation. […] Data Analysis. […] The EC50 values of compounds were calculated from the concentration-response curves by nonlinear regression analysis using Prism software (GraphPad Software, San Diego, Calif.). Confirmatory cAMP Assay and Test for Selectivity Towards TSHR 50,000 cells/well were plated in complete media (DMEM containing 10% FCS) in 96 well plates. […] Following aspiration of the medium after incubation with compounds, cells were lysed using lysis buffer of the cAMP-Screen Direct™ System (Applied Biosystems, Cat # CSD200). The cAMP content of the cell lysate was determined using the manufacturer's protocol. […] Below is a List of Compounds that were Assayed via the Homogeneous Time Resolved Fluorescence (HTRF) cAMP Assay.
Regarding `COc1ccc(C2Nc3ccccc3C(=O)N2Cc2ccco2)cc1COc1ccc(NC(C)=O)cc1` (centres unmarked) [Compound 3, N-(4-(5-(3-(Furan-2-ylmethyl)-4-oxo-1,2,3,4-tetrahydroquinazolin-2-yl)-2-methoxybenzyloxy)phenyl)acetamide], the EC50 amounted to 0.59 µM.
In turn, `COc1ccc(-c2nc3ccccc3c(=O)n2Cc2ccco2)cc1COc1ccc(NC(C)=O)cc1` [Compound 3/1, N-(4-(5-(3-(Furan-2-ylmethyl)-4-oxo-3,4-dihydroquinazolin-2-yl)-2-methoxybenzyloxy)phenyl)acetamide] had an EC50 of 0.1 µM.
`COc1ccc(C2Nc3ccccc3C(=O)N2Cc2ccccc2)cc1COc1ccc(NC(C)=O)cc1` (centres unmarked) [Compound 3/2, N-(4-(5-(3-Benzyl-4-oxo-1,2,3,4-tetrahydroquinazolin-2-yl)-2-methoxybenzyloxy)phenyl)acetamide] had an EC50 of 0.541 µM.
For the compound `COc1ccc(C2Nc3cccc(O)c3C(=O)N2Cc2ccccc2)cc1COc1ccc(NC(C)=O)cc1` (centres unmarked) [Compound 3/4, N-(4-(5-(3-Benzyl-5-hydroxy-4-oxo-1,2,3,4-tetrahydroquinazolin-2-yl)-2-methoxybenzyloxy)phenyl)acetamide], the EC50 was 0.025 µM.
Regarding `COc1ccc(C2Nc3ccccc3C(=O)N2Cc2ccccc2)cc1CSc1ccc(NC(C)=O)cc1` (centres unmarked) [Compound 3/5, N-(4-(5-(3-Benzyl-4-oxo-1,2,3,4-tetrahydroquinazolin-2-yl)-2-methoxybenzylthio)phenyl)acetamide], the midpoint of the response, the EC50, lay at 0.038 µM.
